Consider 46 molecules from patent publication US20080021026A1, “BENZOTHIOPHENE INHIBITORS OF RHO KINASE” (priority 2006, published 2008).

The target in the experiment is T1, recombinant N-terminal GST-tagged human Rho kinase 2 (ROCK2, amino acids 1-552) (Homo sapiens, UniProt O75116).
T1 construct: ROCK2, amino acids 1-552; purchased Invitrogen Inc. PV3759
Description: In vitro Rho kinase assay (luciferase-based ATP consumption), ROCK2. The experiment is classed as biochemical. In a few lines: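 Luciferase-based luminescence of leftover ATP after 2 h at 30 °C, where inhibition raises signal, reports activity of GST-tagged ROCK2 (aa 1-552) at 0.82 μg/ml. Conditions: S6 peptide 100 μg/ml, […], pH 7.5 Tris buffer. Results given as percent of H-1152P control activity.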

The mark [1] stands for this setting: recombinant GST-tagged human ROCK2, luciferase-based ATP consumption, read-out: ROCK2 IC50.
Setting [2] is: ROCK2 IC50, recombinant GST-tagged human ROCK2, luciferase-based ATP consumption.

Where two headings read alike, the source gives them in different places. A value given as a limit tells only on which side of the number the result lay.

T1 sequence (O75116 1-552): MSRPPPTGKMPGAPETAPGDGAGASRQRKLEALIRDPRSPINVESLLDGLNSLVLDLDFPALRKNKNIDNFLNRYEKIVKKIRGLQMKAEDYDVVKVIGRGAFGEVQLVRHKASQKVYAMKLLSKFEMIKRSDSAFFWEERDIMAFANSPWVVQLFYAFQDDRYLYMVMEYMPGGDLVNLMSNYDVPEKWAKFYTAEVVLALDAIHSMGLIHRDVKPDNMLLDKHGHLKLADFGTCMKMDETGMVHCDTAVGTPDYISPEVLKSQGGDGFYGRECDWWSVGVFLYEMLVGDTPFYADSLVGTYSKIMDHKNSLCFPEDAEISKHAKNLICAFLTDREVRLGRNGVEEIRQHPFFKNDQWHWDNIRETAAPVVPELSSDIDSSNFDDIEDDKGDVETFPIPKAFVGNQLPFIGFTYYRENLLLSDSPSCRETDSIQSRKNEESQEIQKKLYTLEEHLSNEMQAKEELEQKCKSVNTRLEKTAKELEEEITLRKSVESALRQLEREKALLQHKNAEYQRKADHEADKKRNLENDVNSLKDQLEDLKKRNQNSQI

The term IC50 denotes the concentration that inhibits the measured activity by half. Take `Cc1c(-c2ccnc(N)n2)sc2ccc(C(=O)NCCCCO)cc12` [Example 354, Cc1c(sc2ccc(cc12)C(═O)NCCCCO)-c3ccnc(N)n3]: the IC50 under setting [1] is below 5 µM.
`Cc1c(-c2ccnc(N)n2)sc2ccc(C(=O)NCc3ccc(Cl)c(Cl)c3)cc12` [Example 446, Cc1c(sc2ccc(cc12)C(═O)NCc3ccc(Cl)c(Cl)c3)-c4ccnc(N)n4]: the IC50 under setting [1] was above 5 µM.
Consider `Cc1c(-c2ccnc(N)n2)sc2ccc(C(=O)NCCN(C)C)cc12` [Example 351, CN(C)CCNC(═O)c1ccc2sc(c(C)c2c1)-c3ccnc(N)n3], for which the IC50 under setting [1] is below 5 µM.
Take `Cc1c(-c2ccnc(N)n2)sc2ccc(C(=O)NCC3CC3)cc12` [Example 340, Cc1c(sc2ccc(cc12)C(═O)NCC3CC3)-c4ccnc(N)n4]: under setting [1], the IC50 is below 5 µM.
Still for that read-out and setting: the same measure for `Cc1c(-c2ccnc(N)n2)sc2ccc(C(=O)N(C)C)cc12` [Example 459, CN(C)C(═O)c1ccc2sc(c(C)c2c1)-c3ccnc(N)n3]: below 5 µM; for `Cc1c(-c2ccnc(N)n2)sc2ccc(C(=O)N3CCC(C(N)=O)CC3)cc12` [Example 494, Cc1c(sc2ccc(cc12)C(═O)N3CCC(CC3)C(N)═O)-c4ccnc(N)n4]: above 5 µM.
As to `Cc1c(-c2ccnc(N)n2)sc2ccc(C(=O)N3CCN(c4ccc(O)cc4)CC3)cc12` [Example 523, Cc1c(sc2ccc(cc12)C(═O)N3CCN(CC3)c4ccc(O)cc4)-c5ccnc(N)n5], the IC50 under setting [1] was below 5 µM.
Same read-out and setting: the same measure for `Cc1c(-c2ccnc(N)n2)sc2ccc(C(=O)NCc3ccc(F)cc3)cc12` [Example 383, Cc1c(sc2ccc(cc12)C(═O)NCc3ccc(F)cc3)-c4ccnc(N)n4]: below 5 µM.
The same measure, in the same setting: then `C#CCNC(=O)c1ccc2sc(-c3ccnc(N)n3)c(C)c2c1` [Example 331, Cc1c(sc2ccc(cc12)C(═O)NCC#C)-c3ccnc(N)n3], with below 5 µM.
On to `COc1ccc(CCNC(=O)c2ccc3sc(-c4ccnc(N)n4)c(C)c3c2)cc1` [Example 423, COc1ccc(CCNC(═O)c2ccc3sc(c(C)c3c2)-c4ccnc(N)n4)cc1], for which, under setting [1], the IC50 was below 5 µM.
On to `Cc1cccc(N2CCN(C(=O)c3ccc4sc(-c5ccnc(N)n5)c(C)c4c3)CC2C)c1` (stereo not shown) [Example 535, CC1CN(CCN1c2cccc(C)c2)C(═O)c3ccc4sc(c(C)c4c3)-c5ccnc(N)n5], for which the IC50 under setting [1] is above 5 µM.
As to `CCN(C(=O)c1ccc2sc(-c3ccnc(N)n3)c(C)c2c1)C(C)C` [Example 468, CCN(C(C)C)C(═O)c1ccc2sc(c(C)c2c1)-c3ccnc(N)n3], under setting [1], the IC50 was below 5 µM.
Turning to `Cc1c(-c2ccnc(N)n2)sc2ccc(C(=O)N3CCN(c4ccc(F)cc4F)CC3)cc12` [Example 546, Cc1c(sc2ccc(cc12)C(═O)N3CCN(CC3)c4ccc(F)cc4F)-c5ccnc(N)n5], the IC50 under setting [1] was above 5 µM.
Take `Cc1c(-c2ccnc(N)n2)sc2ccc(C(=O)N[C@H](CO)Cc3ccccc3)cc12` [Example 422, Cc1c(sc2ccc(cc12)C(═O)N[C@H](CO)Cc3ccccc3)-c4ccnc(N)n4]: the IC50 under setting [1] is below 5 µM.
For the molecule `Cc1c(-c2ccnc(N)n2)sc2ccc(C(=O)N3CCC(Cc4ccccc4)CC3)cc12` [Example 520, Cc1c(sc2ccc(cc12)C(═O)N3CCC(CC3)Cc4ccccc4)-c5ccnc(N)n5], the IC50 under setting [1] is above 5 µM.
In the case of `CCN(Cc1ccccc1)C(=O)c1ccc2sc(-c3ccnc(N)n3)c(C)c2c1` [Example 499, CCN(Cc1ccccc1)C(═O)c2ccc3sc(c(C)c3c2)-c4ccnc(N)n4], under setting [1], the IC50 was below 5 µM.
Take `C#CCN(Cc1ccc(Cl)cc1Cl)C(=O)c1ccc2sc(-c3ccnc(N)n3)c(C)c2c1` [Example 559, Cc1c(sc2ccc(cc12)C(═O)N(CC#C)Cc3ccc(Cl)cc3Cl)-c4ccnc(N)n4]: the IC50 under setting [2] was above 5 µM.
Consider `CCCN(CCC)C(=O)c1ccc2sc(-c3ccnc(N)n3)c(C)c2c1` [Example 478, CCCN(CCC)C(═O)c1ccc2sc(c(C)c2c1)-c3ccnc(N)n3], for which the IC50 under setting [1] is below 5 µM.
Regarding `COc1ccc(CNC(=O)c2ccc3sc(-c4ccnc(N)n4)c(C)c3c2)cc1OC` [Example 440, COc1ccc(CNC(═O)c2ccc3sc(c(C)c3c2)-c4ccnc(N)n4)cc1OC], the IC50 under setting [1] was below 5 µM.
For `Cc1c(-c2ccnc(N)n2)sc2ccc(C(=O)NCCCNC(=O)OC(C)(C)C)cc12` [Example 443, Cc1c(sc2ccc(cc12)C(═O)NCCCNC(═O)OC(C)(C)C)-c3ccnc(N)n3], under setting [1], the half-maximal inhibitory concentration (IC50) is below 5 µM.
For the molecule `Cc1c(-c2ccnc(N)n2)sc2ccc(C(=O)N3CCc4ccccc4C3)cc12` [Example 498, Cc1c(sc2ccc(cc12)C(═O)N3CCc4ccccc4C3)-c5ccnc(N)n5], under setting [1], the IC50 is below 5 µM.
As to `Cc1c(-c2ccnc(N)n2)sc2ccc(C(=O)NC3CCc4ccccc43)cc12` (stereo not shown) [Example 391, Cc1c(sc2ccc(cc12)C(═O)NC3CCc4ccccc34)-c5ccnc(N)n5], under setting [1], the IC50 is below 5 µM.
As to `Cc1ccc(CCNC(=O)c2ccc3sc(-c4ccnc(N)n4)c(C)c3c2)cc1` [Example 392, Cc1ccc(CCNC(═O)c2ccc3sc(c(C)c3c2)-c4ccnc(N)n4)cc1], the IC50 under setting [1] was above 5 µM.
Consider `CCCNC(=O)c1ccc2sc(-c3ccnc(N)n3)c(C)c2c1` [Example 335, CCCNC(═O)c1ccc2sc(c(C)c2c1)-c3ccnc(N)n3], for which the IC50 under setting [1] is below 5 µM.
As for `Cc1ccc([C@H](C)NC(=O)c2ccc3sc(-c4ccnc(N)n4)c(C)c3c2)cc1` [Example 394, C[C@H](NC(═O)c1ccc2sc(c(C)c2c1)-c3ccnc(N)n3)c4ccc(C)cc4], the IC50 under setting [1] is above 5 µM.
Still for that read-out and setting: the same measure for `Cc1c(-c2ccnc(N)n2)sc2ccc(C(=O)N(CCc3ccccc3)Cc3ccccc3)cc12` [Example 556, Cc1c(sc2ccc(cc12)C(═O)N(CCc3ccccc3)Cc4ccccc4)-c5ccnc(N)n5]: above 5 µM; for `Cc1c(-c2ccnc(N)n2)sc2ccc(C(=O)NCCO)cc12` [Example 337, Cc1c(sc2ccc(cc12)C(═O)NCCO)-c3ccnc(N)n3]: below 5 µM; for `COC[C@@H]1CCCN1C(=O)c1ccc2sc(-c3ccnc(N)n3)c(C)c2c1` [Example 487, COC[C@@H]1CCCN1C(═O)c2ccc3sc(c(C)c3c2)-c4ccnc(N)n4]: above 5 µM.
Consider `Cc1c(-c2ccnc(N)n2)sc2ccc(C(=O)NC3CCC(C)CC3)cc12` (stereo not shown) [Example 368, CC1CCC(CC1)NC(═O)c2ccc3sc(c(C)c3c2)-c4ccnc(N)n4], for which the IC50 under setting [1] is above 5 µM.
On the same count and under the same terms, then `Cc1c(-c2ccnc(N)n2)sc2ccc(C(=O)N3CCN(c4ccccn4)CC3)cc12` [Example 514, Cc1c(sc2ccc(cc12)C(═O)N3CCN(CC3)c4ccccn4)-c5ccnc(N)n5], with above 5 µM.
Regarding `Cc1c(-c2ccnc(N)n2)sc2ccc(C(=O)NCCN3CCCCC3)cc12` [Example 387, Cc1c(sc2ccc(cc12)C(═O)NCCN3CCCCC3)-c4ccnc(N)n4], the IC50 under setting [1] is below 5 µM.
In the case of `Cc1c(-c2ccnc(N)n2)sc2ccc(C(=O)NCCN3CCOCC3)cc12` [Example 389, Cc1c(sc2ccc(cc12)C(═O)NCCN3CCOCC3)-c4ccnc(N)n4], under setting [1], the IC50 is below 5 µM.
On the same count and under the same terms, the same measure for `Cc1c(-c2ccnc(N)n2)sc2ccc(C(=O)NCCC#N)cc12` [Example 338, Cc1c(sc2ccc(cc12)C(═O)NCCC#N)-c3ccnc(N)n3]: below 5 µM.
Regarding `Cc1c(-c2ccnc(N)n2)sc2ccc(C(=O)NC(C)C(C)C)cc12` (stereo not shown) [Example 349, CC(C)C(C)NC(═O)c1ccc2sc(c(C)c2c1)-c3ccnc(N)n3], the IC50 under setting [1] was above 5 µM.
For `Cc1c(-c2ccnc(N)n2)sc2ccc(C(=O)N3CCN(c4ccc(C(C)(C)C)cc4)CC3)cc12` [Example 562, Cc1c(sc2ccc(cc12)C(═O)N3CCN(CC3)c4ccc(cc4)C(C)(C)C)-c5ccnc(N)n5], the IC50 under setting [1] is below 5 µM.
For `Cc1c(-c2ccnc(N)n2)sc2ccc(C(=O)NCCCN(C)c3ccccc3)cc12` [Example 437, CN(CCCNC(═O)c1ccc2sc(c(C)c2c1)-c3ccnc(N)n3)c4ccccc4], the concentration for half-maximal inhibition (IC50) under setting [1] is below 5 µM.
Consider `Cc1c(-c2ccnc(N)n2)sc2ccc(C(=O)N3CCC(O)(c4ccc(Cl)cc4)CC3)cc12` [Example 558, Cc1c(sc2ccc(cc12)C(═O)N3CCC(O)(CC3)c4ccc(Cl)cc4)-c5ccnc(N)n5], for which, under setting [1], the IC50 is above 5 µM.
On to `Cc1c(-c2ccnc(N)n2)sc2ccc(C(=O)N(C)CCc3ccccc3)cc12` [Example 500, CN(CCc1ccccc1)C(═O)c2ccc3sc(c(C)c3c2)-c4ccnc(N)n4], for which the IC50 under setting [1] was below 5 µM.
Consider `Cc1c(-c2ccnc(N)n2)sc2ccc(C(=O)NCCN)cc12` [Example 336, Cc1c(sc2ccc(cc12)C(═O)NCCN)-c3ccnc(N)n3], for which the IC50 under setting [1] was below 5 µM.
In the case of `Cc1c(-c2ccnc(N)n2)sc2ccc(C(=O)NCCc3ccccc3Cl)cc12` [Example 427, Cc1c(sc2ccc(cc12)C(═O)NCCc3ccccc3Cl)-c4ccnc(N)n4], the IC50 under setting [2] is below 5 µM.
Turning to `Cc1c(-c2ccnc(N)n2)sc2ccc(C(=O)NC3CC(C)(C)NC(C)(C)C3)cc12` [Example 430, Cc1c(sc2ccc(cc12)C(═O)NC3CC(C)(C)NC(C)(C)C3)-c4ccnc(N)n4], the IC50 under setting [1] is below 5 µM.
Turning to `COc1ccc(CCN(C)C(=O)c2ccc3sc(-c4ccnc(N)n4)c(C)c3c2)cc1OC` [Example 543, COc1ccc(CCN(C)C(═O)c2ccc3sc(c(C)c3c2)-c4ccnc(N)n4)cc1OC], the IC50 under setting [1] was above 5 µM.
Turning to `COc1ccccc1N1CCN(C(=O)c2ccc3sc(-c4ccnc(N)n4)c(C)c3c2)CC1` [Example 541, COc1ccccc1N2CCN(CC2)C(═O)c3ccc4sc(c(C)c4c3)-c5ccnc(N)n5], the IC50 under setting [1] is above 5 µM.
Take `Cc1c(-c2ccnc(N)n2)sc2ccc(C(=O)NN3CCOCC3)cc12` [Example 361, Cc1c(sc2ccc(cc12)C(═O)NN3CCOCC3)-c4ccnc(N)n4]: the IC50 under setting [1] is below 5 µM.
In the case of `Cc1c(-c2ccnc(N)n2)sc2ccc(C(=O)N3CCC(C)CC3)cc12` [Example 473, CC1CCN(CC1)C(═O)c2ccc3sc(c(C)c3c2)-c4ccnc(N)n4], under setting [1], the IC50 was below 5 µM.
Take `Cc1c(-c2ccnc(N)n2)sc2ccc(C(=O)N3CCC[C@@H]3CO)cc12` [Example 476, Cc1c(sc2ccc(cc12)C(═O)N3CCC[C@@H]3CO)-c4ccnc(N)n4]: under setting [1], the IC50 was below 5 µM.
